Measurements reported in paper PMC4550478, “Metronidazole-triazole conjugates: Activity against Clostridium difficile and parasites” (European Journal of Medicinal Chemistry, 2015).
Values after ≈ are worked out from the molar mass of the structure shown. Where two headings read alike, the source gives them in different places.

Assays:
[1] = test system: C. difficile 630 ATCC BAA-1382; experiment: MIC broth microdilution, C. difficile 630; format: cell-based, Clostridium difficile; details: Clostridioides difficile, ATCCBAA1382, MtzS, 24 h, median of at least n = 4
Experimental: (§1) All compounds were tested for activity against a set of anaerobic C. difficile bacteria (630 ATCC BAA-1382, NAP1/027 M7404, NAP1/027 ATCC BAA-1803, VPI10463 ATCC 43255, CD26A54_S and CD26A54_R) and representative ESKAPE pathogens S. aureus (MRSA ATCC 43300), E. coli (ATCC 25922), K. pneumoniae (ATCC 700603), A. baumannii (ATCC 19606) and P. aeruginosa (ATCC 27853) using a standard broth microdilution assay. Selected compounds were tested for activity against H. pylori strains (26695, and clinical isolates MtzS 13/25, MtzR 98/285 and MtzR 13/61) using agar plate dilution, and for antimicrobial activity against […] Gram-positive bacterial strains: Enterococcus faecalis (VanA clinical isolate), Enterococcus faecium (MDR VanA ATCC 51559), Streptococcus pneumoniae (MDR ATCC 700677), S. aureus (MRSA ATCC 43300, MRSA clinical isolate, MRSA/DRSA clinical isolate, GISA NARSA NRS 1, GISA NARSA NRS 17, VRSA NARSA VRS1, VRSA NARSA VRS4 and VRSA NARSA VRS10) using broth microdilution. C. difficile strains were grown at 37 °C in a COY anaerobic chamber (5% H2, 10% CO2, 85% N2). H. pylori strains were grown at 37 °C under a microaerobic atmosphere (5% O2, 10% CO2). All facultative anaerobic bacteria were grown at 37 °C with normal atmospheric oxygen levels. All experiments were performed in duplicate with metronidazole, vancomycin, linezolid or colistin as positive controls for relevant strains (see Table 1). Positive growth control of bacteria and DMSO as well as a negative control of only media were included for every plate. Full assay details are provided in the supplementary information.
(§2) C. difficile ATCC BAA-1382, ATCC BAA-1803, ATCC 43255 and M7404 heat shocked spore stocks (10 µL) were transferred into the anaerobic chamber and 10 µL streaked onto pre-reduced (at least 2.5 hr in anaerobic chamber) BHIS agar plates supplemented with 0.1% w/v sodium taurocholate (BHIS(TA)). Plates were incubated for 24 hours prior to assay to give colonies of size 1-3mm diameter with characteristic uneven borders.
(§3) The minimum inhibition concentration was determined according to the CLSI Methods with modifications in broth and inoculum for C. difficile according to Babakhani et al.^7,8 Briefly, compounds were prepared to 20X final concentration in 100% water, 60% DMSO and 40% water or 60% DMSO and 40% media. The compounds along with standard antibiotics were serially diluted two-fold across the wells of 96-well non-binding surface plates (Non binding surface, Corning). The plates were placed in the anaerobic chamber overnight to reduce. C. difficile bacteria from BHIS(TA) agar plates were cultured anaerobically in BHIS at 37 °C overnight. A sample of culture was then diluted 40-fold in BHIS broth and incubated at 37 °C for approximately 4.5 hrs. The resultant mid-log phase culture (OD600= 0.5-0.6) was diluted to the final concentration of ~1×10^6 CFU/mL, then 50 µL was added to each well of the compound-containing 96-well plates. This gave final cell concentration of 5×10^5 CFU/mL, final volume 100 µL and 3% maximum DMSO concentration. Compound concentration was typically from 64 to 0.03 µg/mL. An antibiotic standard was included on each 96 well plate as well as a positive growth control (no compound) and sterility control (no bacteria). All the plates were covered and incubated at 37 °C for 24 h. MICs were the lowest concentration showing no visible growth.

[2] = test system: C. difficile NAP1/027 M7404; experiment: MIC broth microdilution, C. difficile NAP1/027 M7404; format: cell-based, Clostridium difficile; details: Clostridioides difficile, NAP1/027M7404; NAP1/027 (footnote d: M7404), MtzS, 24 h, median of at least n = 4
Experimental: as §1, §2, §3

[3] = test system: C. difficile NAP1/027 CD26A54_S; experiment: MIC broth microdilution, C. difficile CD26A54_S; format: cell-based, Clostridium difficile; details: Clostridioides difficile
[4] = test system: C. difficile NAP1/027 CD26A54_R; experiment: MIC broth microdilution, metronidazole resistant C. difficile CD26A54_R; format: cell-based, Clostridium difficile; details: for MIC: Clostridioides difficile
[5] = test system: G. lamblia WB trophozoites; experiment: ATP-bioluminescence growth and survival assay, G. lamblia WB; format: cell-based, Giardia lamblia; details: Giardia duodenalis; MtzS, 48 h, anaerobic, n = 3
Experimental: (§4) Compounds were tested for antiparasitic activity against E. histolytica (HM1:1MSS strain) and G. lamblia (WB, BRIS/87/HEPU/713 (713), BRIS/83/HEPU/106 (106) and the metronidazole resistant syngeneic line 713-M3 [[15,16]]) using an ATP-bioluminescence based screen for cell growth and survival [[17,18]]. Assay plates were inoculated with trophozoites (5 × 10^3 parasites/well) and incubated in the GasPak™ EZ Anaerobe Gas Generating Pouch Systems (VWR, West Chester, PA) to maintain anaerobic conditions throughout the incubation period. The assays were performed in triplicate using the CellTiter-Glo Luminescent Cell Viability Assay. Metronidazole was used as a positive control.
(§5) Trophozoites of E. histolytica strain HM1:IMSS and G. lamblia strains WB, BRIS/87/HEPU/713 (713),^10 BRIS/83/HEPU/106 (106)^11 and the metronidazole resistant syngenic line 713-M3^10,11 were axenically maintained in TYI-S-33 medium supplemented with penicillin (100 U/ml), streptomycin (100 µg/ml).^12 E. histolytica and G. lamblia trophozoites were counted using a particle counter (Beckman Coulter, Fullerton, CA). All experiments were performed using trophozoites harvested during the logarithmic phase of growth.
(§6) A three-fold serial dilution was then performed yielding a concentration range 0.25-625 µM. From this dilution plate, 4 µL were transferred into the 96-well screen plates followed by addition of 96 µL of trophozoites (5,000 parasites) to yield a final 8-point concentration range spanning 0.01- 25 µM. Assay plates were incubated for 48 h at 37 °C in the GasPak^TM EZ Anaerobe Gas Generating Pouch Systems (VWR, West Chester, PA) to maintain anaerobic condition throughout the incubation period. The assays were performed in triplicate using the CellTiter-Glo Luminescent Cell Viability Assay.^13

[6] = test system: G. lamblia BRIS/87/HEPU/713 (713); experiment: ATP-bioluminescence growth and survival assay, G. lamblia 713; format: cell-based; details: Giardia duodenalis, read-out: EC50 G. lamblia 713
Experimental: as §4, §5, §6

G. lamblia 713-M3 (713M) = experiment: ATP-bioluminescence growth and survival assay, metronidazole resistant G. lamblia 713-M3; format: cell-based; details: Giardia duodenalis, read-out: EC50 G. lamblia 713M
Experimental: as §4, §5, §6

[7] = 24 hr incubation, read-out: MIC C. difficile NAP1/027 CD26A54_S 24 hr
[8] = CD26A54_S, MtzS (intermediary), 48 h growth, read-out: MIC C. difficile NAP1/027 CD26A54_S 48 h
[9] = 24 hr incubation, read-out: MIC C. difficile NAP1/027 CD26A54_R 24 hr
[10] = CD26A54_R, MtzR, 48 h growth, BHIS broth, n = 8, read-out: MIC C. difficile NAP1/027 CD26A54_R 48 h

| SMILES | MIC [1] | MIC [2] | MIC [3, 7] | MIC [3, 8] | MIC [4, 9] | MIC [4, 10] | EC50 [5] | EC50 [6] | EC50 (G. lamblia 713-M3 (713M)) | MIC C. difficile NAP1/027 CD26A54_R 24 hr ([4]; 24 hr incubation) | EC50 ([6]; MtzS, purified compounds, this study) |
| --- | --- | --- | --- | --- | --- | --- | --- | --- | --- | --- | --- |
| Cc1ccc(-c2cn(CCn3c([N+](=O)[O-])cnc3C)nn2)cc1 [Compound 4e, 1-(2-(2-methyl-5-nitro-1H-imidazol-1-yl)ethyl)-4-(p-tolyl)-1H-1,2,3-triazole] | 0.5 µg/mL (≈ 1.6 µM) | 0.5 µg/mL (≈ 1.6 µM) | 1 µg/mL (≈ 3.2 µM) | 1 µg/mL (≈ 3.2 µM) | 2 µg/mL (≈ 6.4 µM) | 2 µg/mL (≈ 6.4 µM) | 180 nM | 290 nM | 1000 nM | – | – |
| Cc1ncc([N+](=O)[O-])n1CCn1cc(-c2ccccn2)nn1 [Compound 4h, 1-(2-(2-methyl-5-nitro-1H-imidazol-1-yl)ethyl)-4-(2-pyridinyl)-1H-1,2,3-triazole.xTFA] | 0.5 µg/mL | 0.5 µg/mL | 1 µg/mL | 1 µg/mL | 2 µg/mL | 4 µg/mL | 740 nM | 280 nM | 950 nM | – | – |
| Cc1ncc([N+](=O)[O-])n1CCn1cc(C(O)c2ccccc2)nn1 (stereo not shown) [Compound 4l, 1-(2-(2-methyl-5-nitro-1H-imidazol-1-yl)ethyl)-4-(1-phenyl-1-hydroxylmethyl)-1H-1,2,3-triazole] | 1 µg/mL (≈ 3.05 µM) | 0.5 to 1 µg/mL (≈ 1.52 to 3.05 µM) | 2 µg/mL (≈ 6.09 µM) | 2 µg/mL (≈ 6.09 µM) | 4 µg/mL (≈ 12.2 µM) | 4 µg/mL (≈ 12.2 µM) | 4400 nM | 2400 nM | 3000 nM | – | – |
| COc1ccc(-c2cn(CCn3c([N+](=O)[O-])cnc3C)nn2)cc1 [Compound 4b, 1-(2-(2-methyl-5-nitro-1H-imidazol-1-yl)ethyl)-4-(4-methoxyphenyl)-1H-1,2,3-triazole] | 0.5 µg/mL (≈ 1.52 µM) | 0.5 µg/mL (≈ 1.52 µM) | 1 µg/mL (≈ 3.05 µM) | 1 µg/mL (≈ 3.05 µM) | 4 µg/mL (≈ 12.2 µM) | 4 µg/mL (≈ 12.2 µM) | 270 nM | 640 nM | 1000 nM | – | – |
| COC(=O)c1cn(CCn2c([N+](=O)[O-])cnc2C)nn1 [Compound 4f, 1-(2-(2-methyl-5-nitro-1H-imidazol-1-yl)ethyl)-4-(methoxycarbonyl)-1H-1,2,3-triazole] | 1 µg/mL (≈ 3.57 µM) | 1 µg/mL (≈ 3.57 µM) | 1 µg/mL (≈ 3.57 µM) | 2 µg/mL (≈ 7.14 µM) | 4 µg/mL (≈ 14.3 µM) | 4 µg/mL (≈ 14.3 µM) | 3000 nM | 1800 nM | 3100 nM | – | – |
| Cc1ncc([N+](=O)[O-])n1CCn1cc(-c2ccccc2)nn1 [Compound 4a, 1-(2-(2-methyl-5-nitro-1H-imidazol-1-yl)ethyl)-4-phenyl-1H-1,2,3-triazole] | 0.5 µg/mL (≈ 1.68 µM) | 0.5 µg/mL (≈ 1.68 µM) | 1 µg/mL (≈ 3.35 µM) | 1 µg/mL (≈ 3.35 µM) | 2 µg/mL (≈ 6.7 µM) | 2 µg/mL (≈ 6.7 µM) | 250 nM | 160 nM | 2300 nM | – | – |
| Cc1ncc([N+](=O)[O-])n1CCn1cc(-c2ccc(Cl)cc2)nn1 [Compound 4c, 1-(2-(2-methyl-5-nitro-1H-imidazol-1-yl)ethyl)-4-(4-chlorophenyl)-1H-1,2,3-triazole] | 0.5 µg/mL (≈ 1.5 µM) | 0.25 µg/mL (≈ 0.751 µM) | 1 to 2 µg/mL (≈ 3.01 to 6.01 µM) | 2 µg/mL (≈ 6.01 µM) | 8 µg/mL (≈ 24 µM) | 16 µg/mL (≈ 48.1 µM) | 200 nM | 1200 nM | 3500 nM | – | – |
| Cc1ncc([N+](=O)[O-])n1CCn1cc(CN(C)Cc2ccccc2)nn1 [Compound 4m, 1-(2-(2-methyl-5-nitro-1H-imidazol-1-yl)ethyl)-4-(N-benzyl, N-methylaminomethyl)-1H-1,2,3-triazole] | 2 µg/mL (≈ 5.63 µM) | 2 µg/mL (≈ 5.63 µM) | 2 µg/mL (≈ 5.63 µM) | 2 µg/mL (≈ 5.63 µM) | 8 µg/mL (≈ 22.5 µM) | 8 µg/mL (≈ 22.5 µM) | 1600 nM | 710 nM | 2200 nM | – | – |
| Cc1ncc([N+](=O)[O-])n1CCn1cc(Cc2ccccc2)nn1 [Compound 4k, 1-(2-(2-methyl-5-nitro-1H-imidazol-1-yl)ethyl)-4-benzyl-1H-1,2,3-triazole] | 0.5 µg/mL (≈ 1.6 µM) | 0.5 µg/mL (≈ 1.6 µM) | 1 µg/mL (≈ 3.2 µM) | 1 µg/mL (≈ 3.2 µM) | 2 µg/mL (≈ 6.4 µM) | 4 µg/mL (≈ 12.8 µM) | 700 nM | 320 nM | 1100 nM | – | – |
| Cc1ncc([N+](=O)[O-])n1CCn1cc(-c2ccc(Cl)c(Cl)c2)nn1 [Compound 4d, 1-(2-(2-methyl-5-nitro-1H-imidazol-1-yl)ethyl)-4-(3,4-dichlorophenyl)-1H-1,2,3-triazole] | 0.5 µg/mL (≈ 1.36 µM) | 1 µg/mL (≈ 2.72 µM) | 1 µg/mL (≈ 2.72 µM) | 1 µg/mL (≈ 2.72 µM) | 8 to 16 µg/mL (≈ 21.8 to 43.6 µM) | 8 to 16 µg/mL (≈ 21.8 to 43.6 µM) | 390 nM | 2500 nM | 1200 nM | – | – |
| Cc1ncc([N+](=O)[O-])n1CCO [Compound 1, metronidazole] | 0.5 µg/mL (≈ 2.92 µM) | 0.5 µg/mL (≈ 2.92 µM) | 1 µg/mL (≈ 5.84 µM) | 1 µg/mL (≈ 5.84 µM) | 2 µg/mL (≈ 11.7 µM) | 4 µg/mL (≈ 23.4 µM) | 7900 nM | – | 17000 nM | 2 µg/mL (≈ 11.7 µM) | 2300 nM |
| Cc1ncc([N+](=O)[O-])n1CCn1cc(-c2ccsc2)nn1 [Compound 4n, 1-(2-(2-methyl-5-nitro-1H-imidazol-1-yl)ethyl)-4-(thiophen-3-yl)-1H-1,2,3-triazole] | 0.5 µg/mL (≈ 1.64 µM) | 0.5 µg/mL (≈ 1.64 µM) | 1 µg/mL (≈ 3.29 µM) | 1 µg/mL (≈ 3.29 µM) | 2 µg/mL (≈ 6.57 µM) | 2 µg/mL (≈ 6.57 µM) | 370 nM | 180 nM | 900 nM | – | – |
